# Measured values from PubChem BioAssay (NCI).
#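 Five compound concentrations were applied to cells in 96-well plates for 48 hours; endpoints were derived by simple linear interpolation of the resulting dose-response curve. Abbreviation: GI50, concentration required for 50% inhibition of growth. TGI is the concentration that stops growth completely.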 Where a SMILES comes first, the peptide text is derived from it. The star is where a group is joined. Boc = CC(C)(C)OC(=O)*
# Experiments:
# Assay in all cases: growth of human tumour cells (NCI), 48 h
# [1] = tested on: K-562 leukemia
# [2] = tested on: MDA-MB-435
# [3] = tested on: EKVX NSCLC
# [4] = tested on: HS 578T breast
# [5] = tested on: NCI-H226 lung
# [6] = tested on: OVCAR-4 ovarian
# [7] = tested on: MDA-MB-231 breast
# [8] = tested on: OVCAR-3 ovarian
# [9] = tested on: NCI-H23 lung
# [10] = tested on: UO-31 renal
Compound,TGI [1],TGI [2],TGI [3],TGI [4],TGI [5],TGI [6],TGI [7],TGI [8],TGI [9],TGI [10],GI50 [1],GI50 [3],GI50 [5],GI50 [6],GI50 [8],GI50 [9]
CC1(C)N=C(C(N)=O)c2ncn(N)c2N1,> 100 µM,> 100 µM,> 100 µM,> 100 µM,> 100 µM,> 100 µM,> 100 µM,> 100 µM,> 100 µM,,,,,,,
C[n+]1c(-c2ccc(/C=N/NC(=N)N/N=C/c3ccc(-c4cn5cc(Cl)ccc5[n+]4C)cc3)cc2)cn2cc(Cl)ccc21,> 100 µM,> 100 µM,> 100 µM,> 100 µM,,> 100 µM,> 100 µM,,,> 100 µM,,,,,,
NC(N)=N/N=C/c1nc2n(c1[N+](=O)[O-])CCS2,,74.1 µM,76.5 µM,> 100 µM,> 100 µM,41 µM,> 100 µM,70.2 µM,42.6 µM,> 100 µM,,,,,,
CC(C)/C(Cl)=N\OC(=O)Nc1ccccc1F,6.52 µM,,30.7 µM,> 69.3 µM,28.8 µM,31.7 µM,22.6 µM,34.4 µM,33.7 µM,29.6 µM,,,,,,
O=C1c2ccc(O)cc2C(=O)c2ccc(O)cc21,> 100 µM,,> 100 µM,,,> 100 µM,,> 100 µM,> 100 µM,73.2 µM,,,,,,
COc1cc2c(c(OC)c1OC)-c1ccc(SC)c(=O)cc1[C@@H](NCc1ccc(C#N)cc1)CC2,> 100 µM,,> 100 µM,,0.00977 µM,> 100 µM,,0.0129 µM,0.00885 µM,> 100 µM,,,,,,
COC(=O)/C(=C\Nc1cccc(C)n1)S(=O)(=O)c1ccc(C)cc1,75.5 µM,> 100 µM,,> 100 µM,> 100 µM,> 100 µM,> 100 µM,> 100 µM,> 100 µM,> 100 µM,,,,,,
COC(=O)C1C/C(=C/N(C)C)C(=S)N1 (stereo not drawn),> 100 µM,> 100 µM,> 100 µM,> 100 µM,,> 100 µM,> 100 µM,> 100 µM,> 100 µM,> 100 µM,,,,,,
CCCSc1ccc2[nH]c(N3C(=O)/C(=C/c4ccco4)N=C3c3ccccc3)cc2c1,> 50 µM,28 µM,> 50 µM,,,,,> 50 µM,> 50 µM,> 50 µM,,,,,,
CC(C)(C)N=NNc1cn(C2OC(CO)C(O)C2O)c(=O)[nH]c1=O (stereo not drawn),> 100 µM,,> 100 µM,,> 100 µM,,,> 100 µM,> 100 µM,> 100 µM,,,,,,
O=CN1CCN(C(=O)c2ccc(Cl)cc2Cl)C1=S,> 100 µM,> 100 µM,> 100 µM,> 100 µM,> 100 µM,> 100 µM,> 100 µM,> 100 µM,> 100 µM,,,,,,,
COc1cc2c(cc1OC)C(C(CO)CO)N(CC(O)CCl)CC2 (stereo not drawn),> 100 µM,,> 100 µM,,> 100 µM,> 100 µM,,> 100 µM,> 100 µM,> 100 µM,,,,,,
Cc1c(Cl)c2ccccc2n1S(=O)(=O)c1ccccc1,> 100 µM,,,,> 100 µM,> 100 µM,,> 100 µM,> 100 µM,85.6 µM,,,,,,
O=C(c1ccco1)N1CCCN(C(=O)c2ccco2)C1=S,> 100 µM,> 100 µM,> 100 µM,> 100 µM,> 100 µM,,> 100 µM,> 100 µM,> 100 µM,> 100 µM,,,,,,
CCc1cc(Cc2cc(Cl)c(NC(=O)C(=O)C3NC(=O)NC3=O)c(CC)c2)cc(Cl)c1NC(=O)C(=O)C1NC(=O)NC1=O (stereo not drawn),> 100 µM,,> 100 µM,,> 100 µM,> 100 µM,,> 100 µM,72.6 µM,> 100 µM,,,,,,
Cc1ccc(S(=O)(=O)N/N=C(\c2nc3ccc(Cl)cc3[nH]c2=O)C(O)c2cccc([N+](=O)[O-])c2)cc1 (stereo not drawn),> 100 µM,,> 100 µM,,> 100 µM,> 100 µM,,> 100 µM,> 100 µM,> 100 µM,,,,,,
C[C@]12CCC(=O)C=C1CC[C@@H]1[C@@H]2[C@@H](O)C[C@@]2(C)[C@H]1CC[C@]2(O)C(=O)COC(=O)COCC(=O)O,> 100 µM,,> 100 µM,,> 100 µM,> 100 µM,,> 100 µM,> 100 µM,> 100 µM,,,,,,
O=C(c1ccc(Cl)cc1)c1ccc(OCCCOc2ccc(C(=O)c3ccc(Cl)cc3)cc2)cc1,> 100 µM,,> 100 µM,,> 100 µM,> 100 µM,,> 100 µM,> 100 µM,,,,,,,
N/C(=N\S(=O)(=O)c1ccc(S(=O)(=O)c2ccccc2)s1)Nc1ccc(Cl)cc1,88.2 µM,,40.4 µM,81.5 µM,88.6 µM,94.8 µM,28.8 µM,79.6 µM,90.4 µM,40 µM,,,,,,
CCC(CON(C)c1ccccc1)(SC)SC,,> 100 µM,> 100 µM,> 100 µM,> 100 µM,> 100 µM,> 100 µM,,> 100 µM,> 100 µM,,,,,,
C1CCC2(CC1)O[C@@H]1[C@@H](O2)[C@@H](O[C@H]2O[C@@H]3COC4(CCCCC4)O[C@H]3[C@@H]3OC4(CCCCC4)O[C@@H]23)O[C@@H]2COC3(CCCCC3)O[C@@H]12,> 100 µM,> 100 µM,> 100 µM,> 100 µM,,> 100 µM,> 100 µM,> 100 µM,> 100 µM,> 100 µM,,,,,,
O=c1[nH]c(=O)n(C2OC(COP(=O)(O)OP(=O)(O)OC3OC(CO)C(O)C(O)C3O)C(O)C2O)cc1F (stereo not drawn),> 100 µM,,> 100 µM,,2.72 µM,7.25 µM,,4.73 µM,> 31.5 µM,2.29 µM,,,,,,
O=C1Nc2ccccc2C12CCNC2Cc1ccccc1 (stereo not drawn),> 100 µM,,> 100 µM,,,> 100 µM,,> 100 µM,> 100 µM,,,,,,,
CCCCC(C#N)(OP1(=O)OC(c2ccccc2)C(C)N1C)c1ccccc1 (stereo not drawn),44.8 µM,33.2 µM,39.8 µM,39.3 µM,,,30.2 µM,31 µM,41.9 µM,31.4 µM,,,,,,

Compound,TGI [1],TGI [2],TGI [3],TGI [4],TGI [5],TGI [6],TGI [7],TGI [8],TGI [9],TGI [10],GI50 [1],GI50 [3],GI50 [5],GI50 [6],GI50 [8],GI50 [9]
Cc1cnc2sn(-c3ccc(Oc4ccccc4)cc3)c(=O)c2c1,,> 100 µM,27.7 µM,50.9 µM,47.6 µM,32.9 µM,37.6 µM,23.3 µM,80.3 µM,42.8 µM,,,,,,
COC(=O)C(Cc1c[nH]c2ccccc12)NC(=O)C(Cc1c[nH]c2ccccc12)NC(=O)C(Cc1c[nH]c2ccccc12)NC(=O)C(Cc1c[nH]c2ccccc12)NC(=O)C(Cc1c[nH]c2ccccc12)NC(=O)C(Cc1c[nH]c2ccccc12)NC(=O)OC(C)(C)C (stereo not drawn) (Boc-WWWWWW-OMe; configuration not given here),> 100 µM,> 100 µM,,,> 100 µM,> 100 µM,> 100 µM,> 100 µM,> 100 µM,> 100 µM,,,,,,
O=C(NCCC1([N+](=O)[O-])CCN(C(=O)c2ccccc2)CC1)c1ccccc1,> 100 µM,> 100 µM,> 100 µM,> 100 µM,> 100 µM,> 100 µM,> 100 µM,,> 100 µM,> 100 µM,,,,,,
BrCCCCCOc1ccc(-c2c3ccccc3c(-c3ccc(OCCCCCBr)cc3)c3ccccc23)cc1,> 100 µM,> 100 µM,> 100 µM,> 100 µM,> 100 µM,> 100 µM,> 100 µM,,,> 100 µM,,,,,,
CCOC(=O)c1cc(-c2cc(OC)c(OC)c([N+](=O)[O-])c2)c([N+](=O)[O-])n1C,> 10 µM,4.72 µM,> 10 µM,> 10 µM,> 10 µM,> 10 µM,,> 10 µM,> 10 µM,> 10 µM,,,,,,
O=S(=O)(c1ccccc1)n1c2ccc(Br)cc2c2nc3ccccc3nc21,> 100 µM,> 100 µM,,> 100 µM,> 100 µM,> 100 µM,> 100 µM,> 100 µM,> 100 µM,> 100 µM,,,,,,
O=S(=O)(CCBr)CCBr,> 48.8 µM,,,,54.9 µM,22.5 µM,,12.3 µM,18.7 µM,> 100 µM,,,,,,
CC(=O)N=C1N(/C=C2\C(=O)Oc3ccccc3C2=O)C(=O)/C(=C/c2ccc(OC(C)=O)cc2)N1C,> 100 µM,> 100 µM,> 100 µM,> 100 µM,> 100 µM,> 100 µM,> 100 µM,> 100 µM,> 100 µM,,,,,,,
NC(CCCC(N)P(=O)(O)c1ccccc1)P(=O)(O)c1ccccc1 (stereo not drawn),> 261 µM,,> 261 µM,,> 261 µM,> 261 µM,,> 261 µM,> 261 µM,> 261 µM,,,,,,
COc1cc(C2c3cc4c(cc3[C@@H](Nc3ccccc3)C3COC[C@H]23)OCO4)cc(OC)c1O (stereo partly drawn),,,> 100 µM,12.4 µM,,> 100 µM,24.5 µM,,,3.71 µM,,,,,,
COc1ccc(-c2cc(=O)c3cc4c(cc3[nH]2)OCO4)cc1OC,> 100 µM,,> 100 µM,,> 100 µM,> 100 µM,,> 100 µM,> 100 µM,> 100 µM,,,,,,
O=C1CC2(c3ccccc3)ON=C(c3ccccc3)N2c2ccccc2N1 (stereo not drawn),> 100 µM,53.2 µM,> 100 µM,,> 100 µM,> 100 µM,> 100 µM,> 100 µM,> 100 µM,> 100 µM,,,,,,
[N-]=[N+]=C1N=CN=C1c1ncn[nH]1,60 µM,> 100 µM,> 100 µM,,> 100 µM,> 100 µM,> 100 µM,> 100 µM,> 100 µM,86.3 µM,,,,,,
CCOC(=O)C1(C/C=C(/C)Cl)CCCC1=O (stereo not drawn),> 100 µM,,> 100 µM,,> 100 µM,> 100 µM,,> 100 µM,> 100 µM,> 100 µM,,,,,,
CCCCCCCCOC1C(O)C(O)C(O)C(O)C12CO2 (stereo not drawn),> 100 µM,> 100 µM,,> 100 µM,> 100 µM,,> 100 µM,> 100 µM,31.3 µM,> 100 µM,,,,,,
CC(O)c1cc2c(s1)C(=O)c1sccc1C2=O (stereo not drawn),> 100 µM,0.0522 µM,0.674 µM,> 100 µM,0.428 µM,0.344 µM,,,,0.359 µM,,,,,,
Cc1c(Cl)nc(Nc2nc3ccccc3[nH]2)nc1Cl,> 100 µM,> 100 µM,84.5 µM,82 µM,> 100 µM,76.5 µM,,,> 100 µM,> 100 µM,,,,,,
N#CC1=C(N)n2c(s/c(=C\c3ccc(Cl)cc3)c2=O)=C(c2nc3ccccc3[nH]2)C1c1ccc(Cl)cc1 (stereo not drawn),4.94 µM,,3.52 µM,,3.46 µM,5.22 µM,,3.66 µM,1.58 µM,> 100 µM,,,,,,
CCSc1sc(=Nc2ccc(N=c3sc(C)c(SC)s3)cc2)sc1-c1ccc(C)cc1,> 100 µM,> 100 µM,> 100 µM,> 100 µM,,> 100 µM,> 100 µM,> 100 µM,> 100 µM,> 100 µM,,,,,,
O=S(=O)(O)c1cc(O)c2c(N=Cc3ccccc3O)cc(S(=O)(=O)O)cc2c1,> 100 µM,> 100 µM,> 100 µM,,> 100 µM,> 100 µM,> 100 µM,> 100 µM,> 100 µM,> 100 µM,,,,,,
N[C@H](C(=O)O)[C@H]1ON=C(Cl)[C@@H]1O,> 550 µM,,> 550 µM,97.5 µM,> 550 µM,42.2 µM,,> 550 µM,> 550 µM,441 µM,4.15 µM,11.2 µM,61.8 µM,5.32 µM,0.449 µM,5.09 µM
Cc1cccc2c(=O)c([Se]c3coc4c(C)cccc4c3=O)coc12,> 100 µM,,33.3 µM,,33.1 µM,35.2 µM,,65.6 µM,32.2 µM,28.7 µM,,,,,,
CN(C)c1ccc(C(=C(c2ccc(N(C)C)cc2)c2ccc(N(C)C)cc2)c2ccc(N(C)C)cc2)cc1,36.9 µM,,34.4 µM,,36.9 µM,> 100 µM,,2.97 µM,33.6 µM,39.9 µM,,,,,,
